The values below come from patent publication US20090312556A1, “N-(2-AMINIPHENYL)-4-(5-((ETHYLAMINO)METHYL)-1,2-THIAZOL-2-YL) BENZAMIDE AND N-(2-AMINOPHENYL)-4-(5-((ISOPROPYLAMINO)METHYL)-1,2-THIAZOL-2-YL) BENZAMIDE AS HDAC INHIBITORS” (ASTRAZENECA R& D ALDERLY, priority 2004, published 2009).

For one test, the system named is HCT116 cells. Description: In vitro assay of inhibition of proliferation in whole cells (MTS). It is filed as cell-based. Particulars: Homo sapiens, HCT-116, 72 hours, read-out: IC50 (nM) Test (b) (In vitro assay for the inhibition of whole cell proliferation). The protocol: Inhibition of proliferation in whole cells was assayed using the Promega cell titer 96 aqueous proliferation assay (Promega #G5421). HCT116 cells were seeded in 96 well plates at 1×10^3 cells/well, and allowed to adhere overnight. They were treated with inhibitors for 72 hours. 20 μl of the tetrazolium dye MTS was added to each well and the plates were re-incubated for 3 hours. Absorbance was then measured on a 96 well plate reader at […]. The IC50 values for HDAC inhibitors were determined by performing dose response curves with individual compounds and determining the concentration of inhibitor producing fifty percent decrease in the maximal signal (diluent control).

The next test has as its target T1, recombinant human HDAC1 (Homo sapiens, UniProt Q13547).
T1 construct: FLAG (C); made in house; host or cells: Hi5 insect cells
Description: In vitro enzyme assay of recombinant HDAC1. The note with it: recombinant human HDAC1, acetylated histone H4 peptide; read-out: IC50 (nM) Test (a) (In vitro assay for the inhibition of HDAC1). It counts as biochemical. The protocol: HDAC inhibitors were screened against recombinant human HDAC1 produced in Hi5 insect cells. The enzyme was cloned with a FLAG tag at the C-terminal of the gene and affinity purified using Anti-FLAG M2 agarose from SIGMA (A2220).
The deacetylase assays were carried out in a 50 μl reaction. HDAC1 (75 ng of enzyme) diluted in 15 μl of reaction buffer (25 mM TrisHCl (pH 8), 137 mM NaCl, 2.7 mM KCl, 1 mM MgCl2) was mixed with either buffer alone (10 μl) or buffer containing compound (10 μl) for 30 minutes at ambient temperature. 25 μM acetylated histone H4 peptide (KI 174 Biomol) diluted in 25 μl of buffer was then added to the reaction and incubated for one hour at ambient temperature. The reaction was stopped by addition of an equal volume (50 μl) of Fluor de Lys developer (Biomol) containing Trichostatin A at 2 μM. The reaction was allowed to develop for 30 minutes at ambient temperature and then fluorescence measured at an excitation wavelength of 360 nm and an emission wavelength of 465 nm. IC50 values for HDAC enzyme inhibitors were determined by performing dose response curves with individual compounds and determining the concentration of inhibitor producing fifty percent decrease in the maximal signal (diluent control).

T1 sequence (Q13547 whole entry): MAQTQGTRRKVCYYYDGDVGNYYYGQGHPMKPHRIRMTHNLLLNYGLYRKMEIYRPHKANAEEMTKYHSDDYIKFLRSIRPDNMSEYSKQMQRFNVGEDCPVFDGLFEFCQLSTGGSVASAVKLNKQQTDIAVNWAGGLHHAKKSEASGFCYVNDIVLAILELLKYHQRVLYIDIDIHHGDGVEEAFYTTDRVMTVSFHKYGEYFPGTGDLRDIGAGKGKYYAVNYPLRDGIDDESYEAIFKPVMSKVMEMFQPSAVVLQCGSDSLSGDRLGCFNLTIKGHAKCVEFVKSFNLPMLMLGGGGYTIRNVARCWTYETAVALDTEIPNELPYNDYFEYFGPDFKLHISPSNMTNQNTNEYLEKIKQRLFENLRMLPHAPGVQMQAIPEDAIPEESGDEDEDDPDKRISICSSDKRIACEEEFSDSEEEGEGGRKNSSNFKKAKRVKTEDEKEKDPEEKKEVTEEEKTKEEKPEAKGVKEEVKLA

For the compound `CC(C)NCc1cnc(-c2ccc(C(=O)Nc3ccccc3N)cc2)s1` [Example 1, N-(2-aminophenyl)-4-{5-[(isopropylamino)methyl]-1,3-thiazol-2-yl}benzamide], the IC50 came to 183 nM in the test with HCT116 cells and 29 nM on recombinant human HDAC1.
